This experiment has as its target Casein kinase II subunit alpha (Homo sapiens, UniProt P68400). Put plainly: Inhibition of human CK2alpha (2 to 391 residues) using [33P]-ATP by scintillation counting based radioactive filter binding assay.

From ChEMBL document CHEMBL3822418, “Enriching screening libraries with bioactive fragment space” (Bioorg Med Chem Lett, 2016) come the findings set out here.

Molecules are shown by their SMILES. Bounds are passed on as bounds.

Sequence of Casein kinase II subunit alpha (P68400 whole entry, the tested form may be a part): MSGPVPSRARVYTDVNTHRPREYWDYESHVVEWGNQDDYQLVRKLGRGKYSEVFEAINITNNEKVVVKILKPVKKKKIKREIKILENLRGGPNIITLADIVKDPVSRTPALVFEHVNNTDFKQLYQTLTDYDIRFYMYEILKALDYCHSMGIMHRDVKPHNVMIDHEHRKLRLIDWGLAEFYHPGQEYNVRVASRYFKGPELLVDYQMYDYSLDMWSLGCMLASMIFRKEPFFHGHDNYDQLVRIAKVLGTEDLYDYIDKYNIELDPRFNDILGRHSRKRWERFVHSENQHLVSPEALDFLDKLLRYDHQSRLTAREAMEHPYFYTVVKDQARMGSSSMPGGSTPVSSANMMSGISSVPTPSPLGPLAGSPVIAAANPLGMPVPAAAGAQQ

As to `Cc1cc2cc(NC(=O)c3n[nH]c4ccccc34)ccc2[nH]1`, the IC50 (commonly the concentration that gives 50% inhibition) is above 200 µM.

`O=C(Nc1n[nH]c2cccc(F)c12)c1ccc2c(c1)CCO2`: the IC50 was above 200 µM.

For `CCc1nnc(-c2cccc(NC(=O)c3n[nH]c4ccccc34)c2)o1`, the IC50 is above 200 µM.

With `O=C(Nc1ccccc1)c1n[nH]c2ccc([N+](=O)[O-])cc12`, the concentration for half-maximal inhibition (IC50) was above 200 µM.
